For this experiment, the target named is T1, human mAChR M4 (Homo sapiens, UniProt P08173).
T1 sequence (P08173 1-479): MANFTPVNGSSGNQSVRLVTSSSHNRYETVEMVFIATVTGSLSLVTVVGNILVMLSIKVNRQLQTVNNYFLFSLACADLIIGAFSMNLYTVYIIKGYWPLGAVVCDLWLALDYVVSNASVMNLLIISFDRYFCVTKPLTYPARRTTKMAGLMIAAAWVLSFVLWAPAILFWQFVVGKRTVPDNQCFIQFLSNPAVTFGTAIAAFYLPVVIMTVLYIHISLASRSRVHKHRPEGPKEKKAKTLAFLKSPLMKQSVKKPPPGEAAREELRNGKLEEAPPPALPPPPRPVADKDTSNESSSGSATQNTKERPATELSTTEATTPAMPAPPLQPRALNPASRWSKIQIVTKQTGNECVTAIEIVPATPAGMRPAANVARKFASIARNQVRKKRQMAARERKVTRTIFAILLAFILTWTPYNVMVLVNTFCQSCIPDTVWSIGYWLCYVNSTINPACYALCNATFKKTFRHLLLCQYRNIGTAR
As to the kind of experiment: mAChR M4 cell-based functional assay (calcium flux), human M4. The note with it: for EC50: Human M4 EC50 (nM), calcium flux, PAM activity with EC20 acetylcholine.

[1] abbreviates: Table 10, % ACh maximum at 30 μM.

Structures can show the parent of a compound that is named as a salt. Where two headings read alike, the source gives them in different places.

Consider `COc1cc(F)c(CNc2ncnc3c2sc2nnc(C)c(C)c23)c(F)c1` [Compound 121, N-[(2,6-difluoro-4-methoxy-phenyl)methyl]-3,4-dimethyl-pyrimido [4′,5′:4,5]thieno[2,3-c] pyridazin-8-amine], for which the concentration for a half-maximal effect (EC50) (Table 10) came out at 579 nM. Besides, the maximal effect (Emax) under setting [1] was 100%.

In the case of `Cc1nnc2sc3c(NCc4ccc(C(=O)N5CCCC5)cc4)ncnc3c2c1C` [Compound 122, [4-[[(3,4-dimethylpyrimido [4′,5′:4,5]thieno[2,3-c]pyridazin-8-yl)amino]methyl]phenyl]-pyrrolidin-1-yl-methanone], for the setting “Table 10”, the EC50 amounted to 482 nM. In addition, the maximal response (Emax) under setting [1] was found to be 83.7%.

As to `Cc1nnc2sc3c(NCc4ccc(C(=O)N5CCOCC5)cc4)ncnc3c2c1C` [Compound 123, [4-[[(3,4-dimethylpyrimido [4′,5′:4,5]thieno[2,3-c]pyridazin-8-yl)amino]methyl]phenyl]-morpholino-methanone], the EC50 (Table 10) is 548 nM. In addition, the maximal effect (Emax) under setting [1] is 87.2%.

For `Cc1nnc2sc3c(NCc4ccc(C(=O)N5CC6(COC6)C5)cc4)ncnc3c2c1C` [Compound 124, [4-[[(3,4-dimethylpyrimido [4′,5′:4,5]thieno[2,3-c]pyridazin-8-yl)amino]methyl]phenyl]-(2-oxa-6-azaspiro[3.3]heptan-6-yl)methanone], the concentration for a half-maximal effect (EC50) (Table 10) was determined as 288 nM. Under setting [1], the maximal response (Emax) came to 84.8%.

On to `Cc1nnc2sc3c(NCc4ccc(C(=O)N5CCCCC5)cc4)ncnc3c2c1C` [Compound 125, [4-[[(3,4-dimethylpyrimido [4′,5′:4,5]thieno[2,3-c]pyridazin-8-yl)amino]methyl]phenyl]-(1-piperidyl)methanone], for which the EC50 (Table 10) came out at 574 nM. Also, under setting [1], the Emax is 93.1%.

In the case of `Cc1nnc2sc3c(NCc4ccc(C(=O)N5CC6CC6C5)cc4)ncnc3c2c1C` (stereo not drawn) [Compound 126, 3-azabicyclo[3.1.0] hexan-3-yl-[4-[[(3,4-dimethylpyrimido [4′,5′:4,5]thieno[2,3-c]pyridazin-8-yl)amino]methyl]phenyl] methanone], the concentration for a half-maximal effect (EC50) (Table 10) was 481 nM. For the same molecule, the maximal effect (Emax) under setting [1] was 84.2%.

For the molecule `COCC1CN(C(=O)c2ccc(CNc3ncnc4c3sc3nnc(C)c(C)c34)cc2)C1` [Compound 127, [4-[[(3,4-dimethylpyrimido [4′,5′:4,5]thieno[2,3-c]pyridazin-8-yl)amino]methyl]phenyl]-[3-(methoxymethyl)azetidin-1-yl] methanone], the concentration for a half-maximal effect (EC50) (Table 10) was found to be 463 nM. Besides, the Emax under setting [1] came to 88.4%.

Turning to `Cc1nnc2sc3c(NCc4ccc(C(=O)N5CC[C@H](F)C5)cc4)ncnc3c2c1C` [Compound 128, [4-[[(3,4-dimethylpyrimido [4′,5′:4,5]thieno[2,3-c]pyridazin-8-yl)amino]methyl]phenyl]-[(3S)-3-fluoropyrrolidin-1-yl]methanone], for the setting “Table 10”, the concentration giving a half-maximal response (EC50) is 529 nM. Further, under setting [1], the Emax is 92%.

Turning to `Cc1nnc2sc3c(NCc4ccc(C(=O)N5CC[C@@H](F)C5)cc4)ncnc3c2c1C` [Compound 129, [4-[[(3,4-dimethylpyrimido [4′,5′:4,5]thieno[2,3-c]pyridazin-8-yl)amino]methyl]phenyl]-[(3R)-3-fluoropyrrolidin-1-yl]methanone], the 50% effective concentration (EC50) (Table 10) was determined as 446 nM. Further, under setting [1], the Emax was found to be 90.6%.

Take `Cc1nnc2sc3c(NCc4ccc(C(=O)N5CCC(F)(F)CC5)cc4)ncnc3c2c1C` [Compound 130, (4,4-difluoro-1-piperidyl)-[4-[[(3,4-dimethylpyrimido [4′,5′:4,5]thieno[2,3-c]pyridazin-8-yl)amino]methyl]phenyl]methanone]: the concentration giving a half-maximal response (EC50) (Table 10) worked out at 724 nM. Further, the maximum response (Emax) under setting [1] was found to be 93.2%.

For `Cc1nnc2sc3c(NCc4ccc(C(=O)N5CCC5)cc4)ncnc3c2c1C` [Compound 131, azetidin-1-yl-[4-[[(3,4-dimethylpyrimido [4′,5′:4,5]thieno[2,3-c]pyridazin-8-yl)amino]methyl]phenyl]methanone], the half-maximal effective concentration (EC50) (Table 10) was 276 nM. Also, under setting [1], the Emax came out at 88.4%.

For the molecule `Cc1nnc2sc3c(NCc4ccc(C(=O)N(C)C5CC5)cc4)ncnc3c2c1C` [Compound 132, N-cyclopropyl-4-[[(3,4-dimethylpyrimido [4′,5′:4,5]thieno[2,3-c]pyridazin-8-yl)amino]methyl]-N-methyl-benzamide], the EC50 (Table 10) worked out at 309 nM. Further, under setting [1], the Emax was 90.4%.

In the case of `Cc1nnc2sc3c(NCc4ccc(C(=O)NC5CC5)cc4)ncnc3c2c1C` [Compound 133, N-cyclopropyl-4-[[(3,4-dimethylpyrimido [4′,5′:4,5]thieno[2,3-c]pyridazin-8-yl)amino]methyl]benzamide], the EC50 (Table 10) worked out at 100 nM. In addition, under setting [1], the maximum response (Emax) was found to be 86%.

Regarding `Cc1nnc2sc3c(NCc4ccc(C(=O)N5CCC(F)(F)C5)cc4)ncnc3c2c1C` [Compound 134, (3,3-difluoropyrrolidin-1-yl)-[4-[[(3,4-dimethylpyrimido [4′,5′:4,5]thieno[2,3-c]pyridazin-8-yl)amino]methyl]phenyl]methanone], the EC50 (Table 10) came out at 469 nM. For the same molecule, the maximal effect (Emax) under setting [1] came to 91.8%.

As to `COc1ccc(CNc2ncnc3c2sc2nnc(C)c(C)c23)cc1` [Compound 135, N-[(4-methoxyphenyl)methyl]-3,4-dimethyl-pyrimido[4′,5′:4,5]thieno [2,3-c]pyridazin-8-amine], the EC50 (Table 10) was 139 nM. Under setting [1], the Emax was found to be 87.8%.

Turning to `COc1c(F)cc(CNc2ncnc3c2sc2nnc(C)c(C)c23)cc1F` [Compound 136, N-[(3,5-difluoro-4-methoxy-phenyl)methyl]-3,4-dimethyl-pyrimido [4′,5′:4,5]thieno[2,3-c] pyridazin-8-amine], the EC50 (Table 10) came to 388 nM. The maximal response (Emax) under setting [1] stood at 96.8%.

For `Cc1nnc2sc3c(N(C)Cc4ccc(C(C)(C)O)cc4)ncnc3c2c1C` [Compound 137, 2-[4-[[(3,4-dimethylpyrimido [4′,5′:4,5]thieno[2,3-c]pyridazin-8-yl)-methyl-amino]methyl]phenyl] propan-2-ol], the half-maximal effective concentration (EC50) (Table 10) was found to be 222 nM. Also, under setting [1], the Emax came to 80.6%.

Regarding `Cc1nnc2sc3c(NCC45CC(C(C)(C)O)(C4)C5)ncnc3c2c1C` [Compound 138, 2-[1-[[(3,4-dimethylpyrimido [4′,5′:4,5]thieno[2,3-c]pyridazin-8-yl)amino]methyl]-3-bicyclo[1.1.1]pentanyl]propan-2-ol], where the note is “Table 10”, the 50% effective concentration (EC50) was 3090 nM. Besides, the Emax under setting [1] amounted to 85%.

Take `Cc1nnc2sc3c(NC45CC(F)(C4)C5)ncnc3c2c1C` [Compound 139, N-(3-fluoro-1-bicyclo [1.1.1]pentanyl)-3,4-dimethyl-pyrimido [4′,5′:4,5]thieno[2,3-c]pyridazin-8-amine]: the 50% effective concentration (EC50) (Table 10) worked out at 422 nM. Also, the maximum response (Emax) under setting [1] is 67.6%.

For `COC(=O)C12CC(CNc3ncnc4c3sc3nnc(C)c(C)c34)(C1)C2` [Compound 140, methyl 1-[[(3,4-dimethylpyrimido [4′,5′:4,5]thieno[2,3-c]pyridazin-8-yl)amino]methyl]bicyclo[1.1.1] pentane-3-carboxylate], the EC50 (Table 10) turned out to be 1240 nM. For the same molecule, the maximum response (Emax) under setting [1] amounted to 80.3%.

Take `Cc1nnc2sc3c(N4CC(Nc5ncccc5C#N)C4)ncnc3c2c1C` [Compound 141, 2-((1-(3,4-dimethylpyrimido [4′,5′:4,5]thieno[2,3-c]pyridazin-8-yl)azetidin-3-yl)amino) nicotinonitrile 2,2,2-trifluoroacetate]: the EC50 (Table 10) was determined as 590 nM. Moreover, the Emax under setting [1] amounted to 66.4%.

`Cc1nnc2sc3c(N4Cc5ccc(C(C)(C)O)cc5C4)ncnc3c2c1C` [Compound 142, 2-[2-(3,4-dimethylpyrimido [4′,5′:4,5]thieno[2,3-c]pyridazin-8-yl)isoindolin-5-yl]propan-2-ol; 2,2,2-trifluoroacetic acid]: where the note is “Table 10”, the 50% effective concentration (EC50) came out at 1250 nM. The maximum response (Emax) under setting [1] turned out to be 53.6%.

With `Cc1nnc2sc3c(NCc4ccc(C(C)(O)C5CC5)cc4)ncnc3c2c1C` (stereo not drawn) [Compound 143, 1-cyclopropyl-1-[4-[[(3,4-dimethylpyrimido [4′,5′:4,5]thieno[2,3-c]pyridazin-8-yl)amino]methyl]phenyl]ethanol], the concentration giving a half-maximal response (EC50) (Table 10) was found to be 779 nM. Further, the maximal response (Emax) under setting [1] came to 61.3%.

For `CCC(O)(CC)c1ccc(CNc2ncnc3c2sc2nnc(C)c(C)c23)cc1` [Compound 144, 3-[4-[[(3,4-dimethylpyrimido [4′,5′:4,5]thieno[2,3-c]pyridazin-8-yl)amino]methyl]phenyl]pentan-3-ol], the concentration for a half-maximal effect (EC50) (Table 10) amounted to 986 nM. For the same molecule, the maximal response (Emax) under setting [1] was determined as 78.3%.

In the case of `CNC(=O)c1ccc(CNc2ncnc3c2sc2nnc(C)c(C)c23)cc1` [Compound 145, 4-[[(3,4-dimethylpyrimido [4′,5′:4,5]thieno[2,3-c]pyridazin-8-yl)amino]methyl]-N-methyl-benzamide], where the note is “Table 10”, the EC50 was 101 nM. For the same molecule, the maximum response (Emax) under setting [1] was 82.1%.

With `Cc1nnc2sc3c(NCc4ccc(C(F)(F)F)nc4)ncnc3c2c1C` [Compound 146, 3,4-dimethyl-N-[[6-(trifluoromethyl)-3-pyridyl]methyl]pyrimido [4′,5′:4,5]thieno[2,3-c] pyridazin-8-amine hydrochloride], the EC50 (Table 10) worked out at 828 nM. Under setting [1], the Emax came out at 97.7%.

On to `Cc1cc(C)c(CNc2ncnc3c2sc2nnc(C)c(C)c23)cn1` [Compound 147, N-[(4,6-dimethyl-3-pyridyl)methyl]-3,4-dimethyl-pyrimido [4′,5′:4,5]thieno[2,3-c] pyridazin-8-amine hydrochloride], for which the Emax turned out to be 85.8%. For the same molecule, the EC50 (Table 10) stood at 429 nM.

(Values after patent US10239887B2, “Positive allosteric modulators of the muscarinic acetylcholine receptor M4” (Vanderbilt University, priority 2016, dated 2019).)
